{"source": "patent US20160101194A1", "about": "“SMART® Medication Adherence Formulation, Method, Device and System for Topical, Vaginal or Rectal Routes of Administration” (University of Florida Research Foundation, Incorporated, priority 2013, published 2016)", "key": {"[1]": {"assay": "Breath kinetics of exhaled d6-acetone after oral ingestion of d8-isopropanol", "type": "in vivo", "conditions": "post-ingestion", "procedure": "Either 100 mg d8-isopropanol or 20 mg d8 isopropanol was delivered orally. For oral dosing, 100 or 20 mg of neat d8-isopropanol were placed in a size 4 licap and the licap was swallowed along with 60-100 mL of water. Following administration of d8-isopropanol, exhaled breath was monitored in real time for the presence of d6-acetone and d7-isopropanol using the Orbitrap LCMS.\n(§1) Following application or ingestion, d6-acetone and d7-isopropanol levels were monitored in exhaled breath samples using the LTQ-LCMS. Single full breath samples were administered directly into the modified ESI source at 5 min intervals for ˜4 hours. The ESI source was operated in positive ion mode."}, "[2]": {"assay": "Breath kinetics of exhaled d6-acetone after topical application of d8-isopropanol in carbomer gel", "type": "in vivo", "conditions": "240 mg transdermal in carbomer gel, post application; maximum still not achieved", "procedure": "240 mg of d8-isopropanol was mixed with 3 mL of a carbomer-based aloe gel. This gel was applied to an approximately 20 cm^2 area of the inner left forearm and covered with a Tagaderm occlusive dressing. To further reduce the permeability of the dressing, the transparent section was covered with a small section of teldar polymer prior to use.\nas §1"}, "[3]": {"conditions": "after vaginal administration with gel; cited from earlier work"}, "[4]": {"conditions": "40 mg rectal in 3 mL HEC gel", "description": "The entire contents of the syringe were applied rectally as a bolus. Breath acetone and 2-butanone levels were monitored throughout the experiment by delivering single full breath samples directly into the modified ESI source. Two baseline breath samples were taken immediately prior to application and then at 1-3 min intervals thereafter. The ESI source was operated in positive ion mode. A 0.2% NH4OH:water mobile phase was introduced into the source at a flow rate of 0.1 mL/min during sampling to produce ammonium adducts of the analytes of interest."}, "[5]": {"conditions": "after oral dosing", "description": "Data shown are mean±SD. *, P<0.05 for a given time point compared to time point 0 min. The arrow denotes time of capsule ingestion. Concentrations less than the level of 1.0 parts-per-billion (ppb) are noted as “<LOD”."}}, "data": [{"smiles": "[2H]OC([2H])(C([2H])([2H])[2H])C([2H])([2H])[2H]", "note": "[d8-IPA, d8-isopropanol]", "values": [{"measurement": "time by which D6-acetone levels in exhaled breath began to level out", "setting": "[1]; 20 mg oral", "value": "≤ 15", "unit": "min"}, {"measurement": "time by which D6-acetone levels in exhaled breath began to level out", "setting": "[1]; 100 mg oral", "value": "≤ 15", "unit": "min"}, {"measurement": "time to maximum concentration of d-6 acetone in exhaled breath", "setting": "[2]", "value": "> 200", "unit": "min"}]}, {"smiles": "CCCC(C)OC(C)=O", "note": "(stereo not shown) [2-pentyl acetate]", "values": [{"measurement": "parent ester and metabolites observed in breath", "setting": "[3]", "value": "observed in breath"}]}, {"smiles": "CCC(C)O", "note": "(stereo not shown) [2-butanol]", "values": [{"measurement": "time to appearance of 2-butanone in breath", "setting": "[4]", "value": "2 to 3", "unit": "min"}, {"measurement": "2-butanone concentration in breath", "setting": "[5]", "value": "500-1,000 ppb"}]}, {"smiles": "CCC(C)OC(C)=O", "note": "(stereo not shown) [2-butyl acetate]", "values": [{"measurement": "parent ester and metabolites observed in breath", "setting": "[3]", "value": "observed in breath"}]}]}
